Source: US5329012A, “Bis(acyloxmethyl)imidazole compounds” (The Research Foundation of State University of New York, priority 1987, dated 1994)
Values joined by “and” are separate entries in the source; they are usually repeats but may differ in a detail not shown here. Identical values can stand only once. Like-named read-outs stand apart in the source and are kept apart here.

Experiments:
[1] = test system: MX-1 (mammary) human tumor xenograft; assay: MX-1 human mammary tumor xenograft (subrenal capsule), tumor weight evaluation; type: in vivo, human tumor in female athymic (nude) mice; conditions: single dose
Procedure: (§1) Tumor cells were inoculated ip(intraperitonal) into female, athymic, mice, being either MX-1 (mammary) or LOX (amelanotic melanoma) human tumor xenograph models. The human xenograft tumors were formed by heterotransplantation of surgically removed human tumors into the subrenal capsule of the nude mice. […] The hydrochloride salts of the compounds, designated H, K, and L, and the free base of H, as identified on Table I were administered to the viable human xenograft tumors by a single dose subcutaneous renal cavity (MX-1) injection or interperitonal (LOX) injection to the nude mice test animal in a suspension of 0.9% aqueous sodium chloride solution with "tween-80" and distilled water. The tested compounds were tested against a known cancer tumor inhibiting compound (control) 2,3-dihydro-5-(3'-4'-dichloropheny1)-6,7-bis(n-propylcarbanoxymethylcarbonate)-1H-pyrollizine.
(§2) In both the MX-1 and LOX model, results were expressed as a percentage of the test animal evaluation (T) compared to that for the control (C) and was reported as %T/C. These values are based on all mice in the test.
In the MX-1 model %T/C was evaluated from an estimate of tumor weight in untreated mice as compared to an estimate of tumor weight in treated mice. In such tumor weight evaluation, a low %T/C indicates effective treatment as the tumors of the treated mice are smaller than tumors of the untreated control mice.
(§3) The data presented comprises findings at optimal dosages of particularly effective compounds of the invention as compared to the control.

[2] = test system: LOX (amelanotic melanoma) human tumor xenograft; assay: LOX human amelanotic melanoma xenograft, survival evaluation; type: in vivo, human tumor in female athymic (nude) mice; conditions: single dose
Procedure: as §1, §2
In the LOX model %T/C was evaluated by survival, meaning that the mean survival time of mice of the control group surviving (C) is compared to the mean survival time of mice who survived the test with treatment (T).
as §3

[3] = hygroscopicity of the hydrochloride salt (observation); type: physicochemical; conditions: crystalline hydrochloride salt
Procedure: A solution of the 1-n-propyl-2-methylthio-4,5-bis(N-methyl carbonyloxymethyl)imidazole prepared in Example XVI (1.72 g; 5.21 mmol) in anhydrous dichloromethane (50 mL) was stirred at 0°-5° C. while anhydrous hydrogen chloride gas was bubbled into the solution for 5 minutes through a gas dispersion tube. […] The residue was dried in vacuo for 10 minutes and dissolved in anhydrous dichloromethane (40 mL). The solution was reduced in volume to 10 mL to induce crystallization. Once crystallization had begun, methylene chloride (20 mL) was added and the cold (0° C.) solution was triturated for 10 minutes.

[4] = test system: lymphocytic leukemia P-388; assay: P-388 lymphocytic leukemia test in mice (NCI Protocol 1.200); type: in vivo, CDF1 female mice; conditions: for Tox.Day Surv. (survivors/animals tested): day 5
Procedure: Various bis(acyloxymethyl)imidazole derivatives prepared in accord with Examples I-XVIII and designated Samples A-J, were tested for anti-tumor activity in vivo using the lymphocytic leukemia P-388 test procedure in mice with Samples A and B representing controls. The test system was that employed by the National Cancer Institute (NCI) for the preliminary screening of anti-tumor agents, according to Protocol 1.200 (Cancer Chemo. Reports Part 3, Vol. 3, No. 2, page 9; 1972). In the study ascitic fluid containing 6×10^6 cells was implanted in the peritoneal cavity of CDF1 female mice. Each imidazole was given in a single injection, at four to six different dose levels (5-6 mice/dose level) daily for five (5) days beginning 24 hours after tumor innoculation. The control animals received saline. Test criteria was in accord with NCI protocol as follows: toxicity day evaluations were carried out on day 5 (number of survivors/number of animals tested); % T/C data was calculated through mean survival time [% T/C=(MST treated/MST control)x100, where MST=mean survival time]; BWD refers to the body weight difference (grams) of test animals compared to control animals; KE refers to the log of the tumor cell population at the end of treatment relative to tumor cell population before treatment.
Table I sets out the identification of the compounds corresponding to the samples used in this and further Examples. Table II sets out the results of the P-388 tests.

[5] = optimal dosage 240 mg/kg, hydrochloride salt
[6] = 6.25 mg/kg/inj, daily for 5 days
[7] = 12.5 mg/kg/inj, daily for 5 days
[8] = 100 mg/kg/inj, daily for 5 days
[9] = Mus musculus, P388, 120 h, read-out: % T/C (mean survival time)
[10] = optimal dosage 115 mg/kg, hydrochloride salt
[11] = optimal dosage 200 mg/kg, free base
[12] = optimal dosage 100 mg/kg, free base, listed as H (Free base)
[13] = optimal dosage 135 mg/kg, hydrochloride salt
[14] = 200 mg/kg/inj, daily for 5 days
[15] = 400 mg/kg/inj, daily for 5 days
[16] = Mus musculus, P388, 120 h, 12.5 mg/kg/inj, daily for 5 days, read-out: % T/C (mean survival time)
[17] = Mus musculus, P388, 120 h, 25 mg/kg/inj, daily for 5 days, read-out: % T/C (mean survival time)
[18] = Mus musculus, P388, 120 h, 50 mg/kg/inj, daily for 5 days, read-out: % T/C (mean survival time)
[19] = Mus musculus, P388, 120 h, 100 mg/kg/inj, daily for 5 days, read-out: % T/C (mean survival time)
[20] = Mus musculus, P388, 120 h, 200 mg/kg/inj, daily for 5 days, read-out: % T/C (mean survival time)

Row | Compound | BWD (body weight difference vs control) [4, 7] | KE (log tumor cell population end vs before treatment) [4, 7] | BWD (body weight difference vs control) ([4]; 25 mg/kg/inj, daily for 5 days) | KE (log tumor cell population end vs before treatment) ([4]; 25 mg/kg/inj, daily for 5 days) | BWD (body weight difference vs control) ([4]; 50 mg/kg/inj, daily for 5 days) | KE (log tumor cell population end vs before treatment) ([4]; 50 mg/kg/inj, daily for 5 days) | BWD (body weight difference vs control) [4, 8] | KE (log tumor cell population end vs before treatment) [4, 8] | BWD (body weight difference vs control) [4, 14] | KE (log tumor cell population end vs before treatment) [4, 14] | BWD (body weight difference vs control) [4, 15] | KE (log tumor cell population end vs before treatment) [4, 15] | response vs control in vivo at 12.5 mg/kg [4, 16] | response vs control in vivo at 25 mg/kg [4, 17] | response vs control in vivo at 50 mg/kg [4, 18] | response vs control in vivo at 100 mg/kg [4, 19] | response vs control in vivo at 200 mg/kg [4, 20] | also measured
1 | CCCn1c(SC)nc(COC(=O)NC)c1COC(=O)NC [K, 1-n-propyl-2-methylthio-4,5-bis-(N-methylcarbonyloxymethyl)imidazole] | – | – | – | – | – | – | – | – | – | – | – | – | – | – | – | – | – | MX-1 Cures [1, 5]: 6/6; LOX % T/C Survl. [2, 5]: 191%; LOX Cures [2, 5]: 1/6; hygroscopicity [3]: slightly hygroscopic
2 | CNC(=O)OCc1nc(SC)n(C)c1COC(=O)NC [H, 1-methyl-2-methylthio-4,5-bis-(N-methylcarbonyloxymethyl)imidazole] | -1.2 g | 1.05 | -1.4 g | 1.05 | -2.6 g | 4.21 | -4.1 g | 6.75 | – | – | – | – | – | – | – | – | – | BWD (body weight difference vs control) [4, 6]: -0.7 g; KE (log tumor cell population end vs before treatment) [4, 6]: -0.83; Tox.Day Surv. (survivors/animals tested) [4, 6]: 5/6; Tox.Day Surv. (survivors/animals tested) [4, 7]: 6/6; Tox.Day Surv. (survivors/animals tested) ([4]; 25 mg/kg/inj, daily for 5 days): 6/6; Tox.Day Surv. (survivors/animals tested) ([4]; 50 mg/kg/inj, daily for 5 days): 6/6; Tox.Day Surv. (survivors/animals tested) [4, 8]: 6/6; response vs control in vivo at 6.25 mg/kg [4, 9]: 125%; response vs control in vivo at 12.5 mg/kg [4, 9]: 147%; response vs control in vivo at 25 mg/kg [4, 9]: 147%; response vs control in vivo at 50 mg/kg [4, 9]: 184%; response vs control in vivo at 100 mg/kg [4, 9]: 236%; MX-1 % T/C wt. ([1]; optimal dosage 100 mg/kg, free base): -73%; MX-1 % T/C wt. [1, 10]: -63%; MX-1 % T/C wt. [1, 11]: -56%; MX-1 Cures [1, 11]: 2/6; LOX % T/C Survl. [2, 12]: 365% and 233%; LOX Cures [2, 12]: 5/6 and 2/6; LOX % T/C Survl. [2, 10]: 234%; LOX Cures [2, 10]: 2/6
3 | CCCCCCn1c(SC)nc(COC(=O)NC)c1COC(=O)NC [L, 1-n-hexyl-2-methylthio-4,5-bis-(N-methylcarbonyloxymethyl)imidazole] | – | – | – | – | – | – | – | – | – | – | – | – | – | – | – | – | – | MX-1 Cures ([1]; optimal dosage 270 mg/kg, hydrochloride salt): 6/6; LOX % T/C Survl. [2, 13]: 208%; LOX Cures [2, 13]: 1/6
4 | CSc1nc(COC(=O)NC(C)C)c(COC(=O)NC(C)C)n1C [I, 1-methyl-2-methylthio-4,5-bis-[N-(2-propyl)carbonyloxymethyl)imidazole] | 2.6 g | -1.40 | 0.4 g | -0.91 | 0.0 g | -0.56 | -1.2 g | 1.89 | -1.8 g | 4.21 | -3.4 g | toxic | 113% | 125% | 130% | 163% | 184% | response vs control in vivo at 400 mg/kg ([4]; Mus musculus, P388, 120 h, 400 mg/kg/inj, daily for 5 days, read-out: % T/C (mean survival time)): 70%
5 | CSc1nc(COC(=O)NC(C)C)c(COC(=O)NC(C)C)n1Cc1ccccc1 [F, 1-benzyl-2-methylthio-4,5-bis-[N-(2-propyl)carbonyloxymethyl)imidazole] | -0.2 g | -1.64 | -1.5 g | -1.59 | -0.5 g | -0.42 | -0.3 g | -0.39 | -2.2 g | -0.32 | -3.2 g | toxic | 98% | 101% | 110% | 111% | 116% | –
